Laboratory results: ChEMBL document CHEMBL1154198, “Chemical genetics of Plasmodium falciparum” (Nature, 2010)

Legend:
[1] = test system: Plasmodium falciparum; experiment: ST_JUDE: Plasmodium falciparum 3D7 EC50 (uM) as measured by SYBR green dye; assay type: functional, organism-based
[2] = test system: Plasmodium falciparum; experiment: ST_JUDE: Plasmodium falciparum K1 EC50 (uM) as measured by SYBR green dye; assay type: functional, organism-based

Row | SMILES | EC50 [1] [µM] | EC50 [2] [µM]
1 | CN(C)CCCNc1c2ccccc2nc2ccccc12 | 0.531 | 3.71
2 | CN(C)c1ccc(Nc2c3ccccc3nc3ccccc23)cc1 | 1.46 | 1.11
3 | CCN1CCN(Cc2c(O)ccc3c(=O)c(Oc4cc(C)cc(C)c4)c(C(F)(F)F)oc23)CC1 | 0.514 | 0.204
4 | CCOc1ccc(Nc2cc(C)nc(Nc3ccc(OCC)cc3)n2)cc1 | > 15 | > 15
5 | CCOc1ccc(Nc2nc(N)c3ccccc3n2)cc1 | 3.23 | > 15
6 | Cc1ccnc(NC(c2cccc(OCc3ccccc3)c2)c2ccc3cccnc3c2O)c1 (stereo unspecified) | 1.81 | 2.93
7 | CCN1/C(=C/c2cccc[n+]2C)Sc2ccc(C)cc21 | 0.738 | 0.436
8 | COc1ccc(N2CCN(C(=S)Nc3ccccc3Cl)CC2C)cc1 (stereo unspecified) | 1.4 | 3.56
9 | Cc1ccc(-c2nc(C(=O)N(CCC#N)Cc3cccnc3)cs2)cc1F | 3.34 | 4.68
10 | CCc1nnc2n1NC(c1ccccc1)C(C(=O)Nc1ccccc1Cl)S2 (stereo unspecified) | > 15 | > 15
11 | CN(C)c1ccc(N2C(N)=NC(N)=NC2(C)C)cc1 | 0.0728 | > 15
12 | CCCCCCOC(=O)c1[nH]c2c(c1C)C(=O)CC(c1ccco1)C2 (stereo unspecified) | 2.52 | 2.03
13 | CCN1CCN(CCCNC(=O)c2ccc3c(c2)sc2nc(-c4ccc(OC)cc4)cn23)CC1 | 0.577 | 1.56
14 | CC(C)(C)c1ccc(C(=O)Nc2nc3ccccc3s2)cc1 | > 15 | > 15
15 | CCc1ccc(C2C(C(=O)OC)=C(N)OC3=C2C(=O)CC(C)(C)C3)cc1 (stereo unspecified) | > 15 | > 15
16 | Cc1cc(O)nc(-n2nc(C)cc2NC(=O)c2cc(C(F)(F)F)cc(C(F)(F)F)c2)n1 | > 15 | > 15
17 | CCOc1cccc2sc(N(Cc3cccnc3)C(=O)C3CCCCC3)nc12 | 3.04 | 2.23
18 | COC(=O)c1ccc(OCC2c3cc(OC)c(OC)cc3CCN2C(=O)Nc2ccccc2)cc1 (stereo unspecified) | 4.83 | 2.93
19 | CC(C)(C)c1ccc(C(=O)Nc2c3c(nn2-c2cccc(Cl)c2)CSC3)cc1 | > 15 | > 15
20 | CCOc1cccc(C2CC(=O)NC3=C2C(=O)CC(c2ccccc2Cl)C3)c1 (stereo unspecified) | 3.72 | 3.11
21 | Cc1ccc2nc(-c3cccnc3)cc(C(=O)Nc3ccc(S(=O)(=O)NC(C)(C)C)cc3)c2c1 | > 15 | > 15
22 | CCCOc1cc(S(=O)(=O)n2ccnc2)ccc1Cl | > 15 | > 15

Row | SMILES | EC50 [1] [µM] | EC50 [2] [µM]
23 | Cc1cc(Br)ccc1OCCCCn1ccnc1 | > 15 | > 15
24 | O=C(Nc1c2c(nn1-c1ccc([N+](=O)[O-])cc1)CSC2)c1ccc(C(=O)c2ccccc2)cc1 | > 15 | 4.08
25 | O=C(NCCc1ccncc1)Nc1ccc([N+](=O)[O-])cc1 | > 15 | > 15
26 | COc1ccc(C)cc1NC(=S)N1CCN(c2ccc([N+](=O)[O-])cc2)CC1 | 1.34 | 1.92
27 | COC(=O)CNC(c1ccccc1)c1cc(Br)ccc1NC(=O)c1ccc(OC)cc1 (stereo unspecified) | 4.22 | 4.33
28 | CCN1CCN(c2cc(C)c3cc(NC(=S)NCCCN4CC(C)CC(C)C4)ccc3n2)CC1 (stereo unspecified) | 5.34 | > 15
29 | C#CCOc1ccc(C2C(C#N)=C(N)Oc3c2ccc2ccccc32)cc1OC (stereo unspecified) | 0.414 | 4.08
30 | Cc1ccc2c(c1)N(C)/C(=C/c1cccc[n+]1CCO)S2 | 1.78 | 1.56
31 | O=C(N/N=C/c1cc(Br)cc([N+](=O)[O-])c1O)NC12CC3CC(CC(C3)C1)C2 | > 15 | 0.959
32 | COc1ccc(C(O)(CCC(C)C)C(CN2CCOCC2)c2ccc(Cl)cc2)cc1 (stereo unspecified) | 4.61 | 3.5
33 | COC(=O)c1ccc(Nc2nc(NCc3ccccc3)c3ccccc3n2)cc1 | 1.11 | > 15
34 | CCCC(=O)NC(c1ccc(OC)cc1)c1ccc2cccnc2c1O (stereo unspecified) | 1.65 | 2.65
35 | Cc1ccc(S(=O)(=O)NCC(c2cccnc2)N2CCN(c3ccc(F)cc3)CC2)cc1 (stereo unspecified) | > 15 | 9.43
36 | Cc1c(C(=O)Nc2ccc(Cl)cc2Cl)cccc1[N+](=O)[O-] | > 15 | > 15
37 | Oc1c(CN2CCCCC2)cc(Br)c2cccnc12 | 3.42 | 2.32
38 | COc1cc(CNc2cccc(Cl)c2)cc(I)c1OC | 3.96 | 4.1
39 | COC(=O)c1c(S(=O)(=O)NCc2ccccc2)sc2c1CCN(Cc1ccc(OC)cc1)C2 | > 15 | > 15
40 | Cc1c(Cl)cccc1NC(=O)Nc1ccc(Cl)c(Cl)c1 | 4.13 | > 15
41 | COc1ccc(C2C(C#N)=C(N)Oc3c2ccc2ccccc32)cc1OC (stereo unspecified) | 1.45 | 8.61
42 | Oc1ccc(Br)cc1CN1CCN(Cc2cccc(Cl)c2)CC1 | 1.79 | 0.338
43 | O=C(Nc1cccc(Cl)c1)C1c2ccccc2C(=O)N(C2CCCC2)C1c1cccs1 (stereo unspecified) | 0.297 | 0.326
44 | COCCn1c(SCC(=O)Nc2cc(C(F)(F)F)ccc2Cl)nc2c(c1=O)SC(C)C2 (stereo unspecified) | > 15 | 0.568

Row | SMILES | EC50 [1] [µM] | EC50 [2] [µM]
45 | COc1ccc(-c2cc(=O)oc3c4c(ccc23)OCN(Cc2ccc(F)cc2)C4)cc1 | 5.21 | 1.06
46 | COc1ccc(CN2CCCN(C)CC2)cc1OCCC1CCCCN1C(=O)/C=C/c1cccs1 (stereo unspecified) | 3.98 | 1.48
47 | CCN(CC)S(=O)(=O)c1ccc(C(=O)NNc2nc3c(C)cccc3s2)cc1 | > 15 | > 15
48 | CC(C)Cn1c2c(c(=N)c3c1CCC3)CCCC2 | 2.25 | 3.78
49 | O=C(NCCc1cccc(C(F)(F)F)c1)Nc1cc(C(F)(F)F)ccc1Cl | 3.09 | 2.37
50 | CCOc1ccc(Nc2nc(NCc3ccco3)c3ccccc3n2)cc1 | 1.19 | 2.64
51 | CCOC(=O)CCc1c(C)c2cc3c(c(C)c2oc1=O)OCN(Cc1ccccc1OC)C3 | 3.04 | 1.22
52 | C=CCNC(=S)N1CCc2cc(OC)c(OC)cc2C1c1ccccc1 (stereo unspecified) | 3.85 | 3.73
53 | CCOC(=O)N1CCC(NC(=S)Nc2ccc(C(C)(C)C)cc2)CC1 | 9.44 | 2.64
54 | Cc1ccc(CN2CCCN(Cc3ccc(F)cc3)C2c2ccccc2F)cc1 (stereo unspecified) | 4.18 | > 15
55 | COC(=O)c1c(S(=O)(=O)N2CCCN(C)CC2)sc2c1CCN(CC(C)c1ccccc1)C2 (stereo unspecified) | > 15 | > 15
56 | CCCN1C(=O)c2[nH]nc(-c3c(C)cc(C)cc3O)c2C1c1ccc(OC)c(OC)c1 (stereo unspecified) | > 15 | > 15
57 | Oc1ccc(Nc2nc(NCc3ccccc3)c3ccccc3n2)cc1 | 0.203 | > 15
58 | Cc1nn(-c2ccccc2)c2ncc(C(=O)Nc3cccc(Cl)c3)c(O)c12 | > 15 | 4.31
59 | COc1cc2c(cc1OC)C(C(=O)Nc1ccc(C(C)C)cc1)C(c1cccs1)N(C)C2=O (stereo unspecified) | > 15 | 3.45
60 | CCOC(=O)c1ccc2nc(C)cc(Nc3ccc(OC)cc3)c2c1 | 2.86 | > 15
61 | CC1CN(C(=O)c2ccc(I)cc2)CC(C)O1 (stereo unspecified) | 2.73 | 1.52
62 | CCN(CC)CCNC(=O)c1ccc2c(c1)sc1nc(-c3ccc(F)cc3)cn12 | 0.974 | 1.92
63 | Oc1c(C(Nc2ccccn2)c2ccc(Cl)c(Cl)c2)ccc2cccnc12 (stereo unspecified) | 1.34 | 4.36
64 | CCO/C(O)=C1\C(C)=NC2=C(C(=O)CC(c3ccccc3)C2)C1c1ccc(Cl)cc1 (stereo unspecified) | 3.85 | 6.69
65 | Cc1ccc2ccc(C(Nc3ccccn3)c3ccccc3Br)c(O)c2n1 (stereo unspecified) | 1.49 | 1.32
66 | CCOc1ccc(NC(=O)CSc2nncc(O)n2)cc1 | 0.734 | 0.994

Row | SMILES | EC50 [1] [µM] | EC50 [2] [µM]
67 | CCC(=O)N(Cc1ccccn1)c1nc2ccccc2s1 | > 15 | > 15
68 | O=C(O)c1cccc(NC2=C(N3CCCCC3)C(=O)c3ccccc3C2=O)c1 | > 15 | 4.82
69 | CC(C)CC(=O)NC(c1ccc(Cl)cc1Cl)c1ccc2cccnc2c1O (stereo unspecified) | > 15 | > 15
70 | CCCN1C(=O)c2[nH]nc(-c3c(C)cc(C)cc3O)c2C1c1cccc(OC)c1 (stereo unspecified) | 5.09 | 2.68
71 | CCc1c(C)c2cc3c(c(C)c2oc1=O)OCN(CCc1ccccc1OC)C3 | 0.757 | 0.223
72 | O=C1C2CC=C(Cl)CC2C(=O)N1CCCCO (stereo unspecified) | 3.32 | 1.47
73 | Cc1nc2sc(C(c3ccc(Cl)c(Cl)c3)N3CCN(C)CC3)c(O)n2n1 (stereo unspecified) | > 15 | > 15
74 | COc1[nH]cnc2c3cc(C)ccc3nc1-2 | > 15 | > 15
75 | CCC1CCCCN1CC(O)COCCC12CC3CC(CC(C3)C1)C2 (stereo unspecified) | 7.2 | 2.68
76 | Cc1c(C(=O)NCCCn2ccnc2)sc2nc(-c3cccc([N+](=O)[O-])c3)cn12 | > 15 | 9.22
77 | CCOc1ccc(NC(=O)C2Sc3nnc(-c4ccccc4)n3NC2c2ccc(OC)cc2)cc1 (stereo unspecified) | > 15 | > 15
78 | CCC(=O)NC(c1ccccc1OC)c1ccc2cccnc2c1O (stereo unspecified) | 2.27 | 4.28
79 | CCCCCC(O)(c1ccc(F)cc1)C(CN1CCOCC1)c1ccc(Cl)cc1 (stereo unspecified) | 1.83 | 0.935
80 | COc1ccc2ncc(C(=O)c3ccccc3)c(N3CCN(C)CC3)c2c1 | > 15 | > 15
81 | C=CCNc1c2c(nc3ccccc13)CCC2 | 3.24 | 1.15
82 | O=C(N/N=c1/oc2ccc(Br)cc2cc1-c1nc2ccccc2[nH]1)c1ccncc1 | 4.71 | > 15
83 | Oc1c(CN2CCN(Cc3ccc4cccnc4c3O)CC2)ccc2cccnc12 | > 15 | 6.32
84 | Clc1cccc(/C=N/Nc2[nH]cnc3ncnc2-3)c1 | 2.31 | 3.65
85 | C#CCOc1ccc(C2C(C#N)=C(N)Oc3cc(O)ccc32)cc1OCC (stereo unspecified) | > 15 | 10.2
86 | CCCC(=O)NC(c1ccc(Cl)cc1Cl)c1ccc2cccnc2c1O (stereo unspecified) | 2.24 | 3.57
87 | CCOc1ccc(C2c3cccn3CCN2C(=O)Nc2cccc(C)c2)cc1 (stereo unspecified) | > 15 | > 15
88 | Cn1c(-c2ccc([N+](=O)[O-])cc2)[n+](C)c2ccccc21 | > 15 | 2.67
